These results are taken from publication PMC314469, “Protein Interaction Networks by Proteome Peptide Scanning” (PLoS Biology, 2004).

The subject of one assay is Myo5 SH3 domain. Put plainly: SPOT analysis of cellulose-bound peptides (WISE), Myo5 SH3 domain (Dataset S4). The class given is binding, Saccharomyces cerevisiae. Particulars: SPOT analysis of cellulose-bound 14-mer yeast proteome peptides, Myo5 SH3 domain; normalized value; mean where the peptide was synthesized more than once.
Take AADWYEVPKVPLSA: the “The normalized value in BLU units” value turned out to be 275.4 BLU.

Take AAMMLGNPMAPAVQ: the “The normalized value in BLU units” value came out at 256.9 BLU. With AAMNLETPSNPDSA, the “The normalized value in BLU units” value came out at 84.9 BLU. Same read-out and setting: in the case of AARILANPDHPFSR it was 165.5 BLU; in that of AEAYLVTPEEPAKN, 39.6 BLU. Same read-out and setting: in the case of AEFDLTDPEVPSFY it was 165.8 BLU. As for AGHIKTHPNSPTPG, the “The normalized value in BLU units” value is 60.3 BLU. AKSNKVSPEDPAVQ: the “The normalized value in BLU units” value is reported as 371.0 BLU. As to ALDNFTLPGTPGFP, the “The normalized value in BLU units” value was determined as 180.7 BLU. On to ALGIFFAPESPWWL, for which the “The normalized value in BLU units” value turned out to be 229.3 BLU.

With ALRKFGYPFSPNDP, the “The normalized value in BLU units” value is 166.2 BLU. As to ALWAKFFPEKPLNI, the “The normalized value in BLU units” value was found to be 154.0 BLU.

With ALYHLSNPNVPKLW, the “The normalized value in BLU units” value worked out at 195.7 BLU.

Turning to APKKWKAPKGPKPT, the “The normalized value in BLU units” value is 1010.5 BLU.

Take APLLYSCPSEPMAY: the “The normalized value in BLU units” value was found to be 83.1 BLU. With APPALSAPSIPPVP, the “The normalized value in BLU units” value is 10786.3 BLU. Regarding APPALSAPSVPPVP, the “The normalized value in BLU units” value is on record as 6575.3 BLU. For APQPHLLPWLPPTD, the “The normalized value in BLU units” value is 117.4 BLU.

Staying with this assay, now noted: SPOT analysis of cellulose-bound peptides probed with Myo5 SH3 domain; normalized value.
Take AADSHAIPVDPPSY: the “The normalized value in BLU units (SPOT analysis, Myo5 SH3)” value is 37.9 BLU. On to AANAHISPPVPGPA, for which the “The normalized value in BLU units (SPOT analysis, Myo5 SH3)” value amounted to 28.6 BLU. With AAPKHAPPPVPNET, the “The normalized value in BLU units (SPOT analysis, Myo5 SH3)” value is 110580.8 BLU. On to AAVRLDQPILPQND, for which the “The normalized value in BLU units (SPOT analysis, Myo5 SH3)” value was found to be 105.1 BLU. For the sequence AAYDHAEPVQPEDA, the “The normalized value in BLU units (SPOT analysis, Myo5 SH3)” value is given as 146.1 BLU. Regarding AELFLGIPIFPGAS, the “The normalized value in BLU units (SPOT analysis, Myo5 SH3)” value is on record as 36.7 BLU. AELFLRRPIFPGRD: the “The normalized value in BLU units (SPOT analysis, Myo5 SH3)” value was 215.9 BLU. For the sequence AELLLGQPMFPGES, the “The normalized value in BLU units (SPOT analysis, Myo5 SH3)” value worked out at 172.2 BLU. Same read-out and setting: in the case of AELMLRIPYLPGQN it was 236.4 BLU; in that of AEVYYGPPTDPRKQ, 83.5 BLU; in that of AFHELGIPVIPNPS, 193.0 BLU. Same read-out and setting: in the case of AFHFWRPPIAPAEM it was 1961.3 BLU; in that of ALDYLIPPPMPKNQ, 130.6 BLU; in that of ALGFYRAPGSPAPA, 100.8 BLU.

ALKEMTHPIKPSAQ: the “The normalized value in BLU units (SPOT analysis, Myo5 SH3)” value was found to be 261.0 BLU. For the sequence ALKSLSNPSSPWQQ, the “The normalized value in BLU units (SPOT analysis, Myo5 SH3)” value was 30.3 BLU. For the sequence ALNNWILPSTPHIQ, the “The normalized value in BLU units (SPOT analysis, Myo5 SH3)” value is on record as 169.3 BLU.

As to APAPPPPPQMPAT, the “The normalized value in BLU units (SPOT analysis, Myo5 SH3)” value is reported as 7749 BLU. With APKYYVPPGIPTND, the “The normalized value in BLU units (SPOT analysis, Myo5 SH3)” value is recorded as 10351.6 BLU.

Regarding DARPFLKPVDPIAL, the “The normalized value in BLU units (SPOT analysis, Myo5 SH3)” value was 126.2 BLU.

Consider DARPFLQPVDPVKL, for which the “The normalized value in BLU units (SPOT analysis, Myo5 SH3)” value came to 179.1 BLU.

Staying with this assay, now noted: SPOT analysis of membrane-bound peptides, Myo5 SH3 domain; normalized value (see methods).
Consider AALVKFVPSKPMCV, for which the “The normalized value in BLU units” value is reported as 280.9 BLU. For the sequence ADDLKYIPPIPQDF, the “The normalized value in BLU units” value amounted to 86.7 BLU. For AFWWKKNPKTPSDY, the “The normalized value in BLU units” value is on record as 65.0 BLU.

Take AGMAKTKPDVPLSY: the “The normalized value in BLU units” value is listed as 157.7 BLU. For AGPRKYIPRAPAQG, the “The normalized value in BLU units” value came to 194.7 BLU.

For the sequence AGQERFAPLAPMYY, the “The normalized value in BLU units” value was found to be 100.8 BLU.

As for AKLHRTKPVKPLSK, the “The normalized value in BLU units” value was 501.8 BLU.

As to AKLRKFHPPEPYKG, the “The normalized value in BLU units” value came out at 119.3 BLU.

Take AMESRVAPEIPGLI: the “The normalized value in BLU units” value came to 426.0 BLU. For APPPKEEPAAPTST, the “The normalized value in BLU units” value is 116.7 BLU. The same measure, in the same setting: for AQKLKLLPEEPFQR the value was 400.9 BLU; for ASKHKMFPFNPAKI, 953.1 BLU. On to ATEAKCLPKIPSIP, for which the “The normalized value in BLU units” value turned out to be 136.7 BLU. On the same count and under the same terms, for ATKRKTIPVYPPVQ the value was 273.7 BLU. As to ATVVKNCPGDPELF, the “The normalized value in BLU units” value is 76.2 BLU. As to AVVYKLKPYIPSLS, the “The normalized value in BLU units” value was 112.0 BLU. With CAKSKSRPNTPGSD, the “The normalized value in BLU units” value came to 153.0 BLU.

For the sequence CFKTKFAPEAPDLF, the “The normalized value in BLU units” value turned out to be 209.0 BLU. On to CKYNRQHPANPAAA, for which the “The normalized value in BLU units” value is listed as 189.3 BLU.

As for CLRARNGPVPPVHI, the “The normalized value in BLU units” value is 207.8 BLU. Consider CNRARYLPQNPDII, for which the “The normalized value in BLU units” value is listed as 243.9 BLU.

Turning to CRHLKLVPSTPMDI, the “The normalized value in BLU units” value was found to be 361.8 BLU.

For DDIIKDHPHIPNGQ, the “The normalized value in BLU units” value is reported as 57.8 BLU. DDNVRPSPISPSIN: the “The normalized value in BLU units” value was found to be 153.4 BLU. For the sequence DEALRYCPDAPIVL, the “The normalized value in BLU units” value was found to be 127.1 BLU.

Staying with this assay, now noted: SPOT analysis of membrane-synthesized peptides probed with Myo5 SH3 domain; normalized value.
AEIVKLTPKNPFYK: the “The normalized value in BLU units (SPOT analysis, Myo5 SH3)” value turned out to be 102.1 BLU.

For AERAKKAPSLPEGQ, the “The normalized value in BLU units (SPOT analysis, Myo5 SH3)” value is on record as 389.2 BLU. Regarding AFVPKRKPSLPQLA, the “The normalized value in BLU units (SPOT analysis, Myo5 SH3)” value is recorded as 1744.9 BLU. Turning to AFYYKYYPVEPNCN, the “The normalized value in BLU units (SPOT analysis, Myo5 SH3)” value is recorded as 187.7 BLU.

On to AGLYKLSPLYPFDV, for which the “The normalized value in BLU units (SPOT analysis, Myo5 SH3)” value is 133.2 BLU. Still for that read-out and setting: in the case of AISKKLGPDTPIKV it was 176.5 BLU. As to AKDYRFNPAIPLRI, the “The normalized value in BLU units (SPOT analysis, Myo5 SH3)” value was 304.4 BLU.

For AKIDKVSPEDPWVL, the “The normalized value in BLU units (SPOT analysis, Myo5 SH3)” value turned out to be 248.0 BLU. As for AKINKVSPEDPWVL, the “The normalized value in BLU units (SPOT analysis, Myo5 SH3)” value amounted to 121.0 BLU. With AKTNKNVPVLPTPG, the “The normalized value in BLU units (SPOT analysis, Myo5 SH3)” value came out at 130.3 BLU.

Turning to AKVNKCPPDHPYIQ, the “The normalized value in BLU units (SPOT analysis, Myo5 SH3)” value came out at 164.3 BLU.

ALEERFDPKSPTKR: the “The normalized value in BLU units (SPOT analysis, Myo5 SH3)” value is 108.5 BLU. On to ALLIKTVPGFPLLE, for which the “The normalized value in BLU units (SPOT analysis, Myo5 SH3)” value was 144.3 BLU.

Turning to ALLRRTIPKRPFYH, the “The normalized value in BLU units (SPOT analysis, Myo5 SH3)” value turned out to be 914.3 BLU. Consider ALSTKGYPHEPPLL, for which the “The normalized value in BLU units (SPOT analysis, Myo5 SH3)” value stood at 138.6 BLU. APVVKSEPSLPRMR: the “The normalized value in BLU units (SPOT analysis, Myo5 SH3)” value worked out at 241.2 BLU. For the sequence ASFRKTKPPPPLDF, the “The normalized value in BLU units (SPOT analysis, Myo5 SH3)” value turned out to be 169.0 BLU. As to ATGKRKLPGWPSAD, the “The normalized value in BLU units (SPOT analysis, Myo5 SH3)” value was found to be 136.1 BLU. Consider AVGGKWEPGNPIAI, for which the “The normalized value in BLU units (SPOT analysis, Myo5 SH3)” value is 78.4 BLU. On to AVLIRADPLNPKVV, for which the “The normalized value in BLU units (SPOT analysis, Myo5 SH3)” value is reported as 102.0 BLU.

Regarding AVQLKRQPAQPRES, the “The normalized value in BLU units (SPOT analysis, Myo5 SH3)” value came to 237.9 BLU. On to CNYSKIFPGIPISL, for which the “The normalized value in BLU units (SPOT analysis, Myo5 SH3)” value is recorded as 49.2 BLU. For CWHPKTIPKQPMEI, the “The normalized value in BLU units (SPOT analysis, Myo5 SH3)” value is 342.9 BLU. For the sequence DEFNRNTPPQPSLL, the “The normalized value in BLU units (SPOT analysis, Myo5 SH3)” value came to 118.0 BLU.
